Test results as given in patent US20030013658A1, “Small peptides and methods for treatment of asthma and inflammation” (Hisatek, LLC, priority 1997, published 2003).
Where no end group is shown, it is not given here. The star is where a group is joined. For = O=C*

Assays:
[1] = tested on: mast cell degranulation induced by Compound 48/80; assay: Rat skin model: inhibition of Compound 48/80-induced mast cell degranulation (capillary permeability, trypan blue); format: in vivo; details: 0.15 μg Compound 48/80
Protocol: The Rat Skin Model for Determination of Inhibition of Mast Cell Degranulation
In this model, the blood plasma of the experimental rat is labeled with the dye trypan blue. This soluble dye is carried in the bloodstream as a passive marker of plasma itself, and is excluded from live cells. Intact blood vessels, including the capillary system, retain this dye under normal circumstances. A compound, which induces degranulation of mast cells (resulting in leukotriene and histamine release), is injected into the skin to simulate allergen-induced degranulation. In these experiments, Compound 48/80 was used for this purpose. In the events following leukotriene and histamine release, capillary permeability is increased, and plasma, dyed blue, leaks from capillaries and dyes the skin surrounding the injection site blue. The area of bluing is a measure of the amount of Compound 48/80 injected.
A compound can be tested for “anti-leukotriene” and/or “anti-histamine” activity by mixing it with Compound 48/80 prior to injection.
The rat skin model was undertaken and validated. Various peptides were tested at a predetermined dose for anti-leukotriene and/or anti-histamine activity. The dose selected allowed a general comparison to f-Met-Leu-Phe, which was standard compound for comparison.
A “dose response” titration was performed for some compounds and compared with the standard compound. Observing serial decreases in the size areas of capillary permeability using serially smaller doses of the putative inhibitory compound validates the inhibition of leukotriene and/or histamine release observed in the initial predetermined dose test.
Reagents were obtained from Sigma or Aldrich, with the exception of ketamine, a veterinary anaesthetic that was obtained from various veterinary suppliers. The rats used were male Sprague-Dawley breed, 220-240 g at time of purchase from B&K International.
For the rat skin reaction, rats were anaesthetized with 0.25 ml 10 mg/ml ketamine. 1.0 ml trypan blue in saline (sterile filtered) was administered in a tail vein, and the back of the rat was shaved. Four intradermal injection sites per rat were used for test and control injections.
Compound 48/80 was prepared as a 1.5 mg/ml stock solution in saline. […] Serial dilutions in saline to working levels were prepared just prior to injection of each rat.
Peptides were prepared as a 23 mM stock solution in DMSO, and stored at −20° C. between experiments. At the time of use, the frozen stock solutions were thawed, and appropriate aliquots added to dilutions of Compound 48/80, along with appropriate amounts of DMSO, to result in the ratio of 5 μl DMSO to 0.1 ml aqueous Compound 48/80.
For injections, 0.1 ml […], +1/− test compounds were injected intradermally into anaesthetized, dyed, and shaved rats. Following a 15 minute incubation, the rats were sacrificed by cervical dislocation and the back skin was evulsed and placed on a light box. An image of the backlit skin was digitized using a CCD video capture camera and compatible hardware/software. The digitized image was analyzed using a scientific graphics analysis software package, and the areas of capillary permeability (bluing) were integrated and digital values were obtained for further analysis.
A dose response curve was generated using Compound 48/80 at various doses from ca. 0.01 μg through ca. 15 μg. […] A dose of 0.15 μg of Compound 48/80 was selected for conducting further tests.
Several f-Met-Leu peptides were tested for inhibition of induced degranulation in the rat skin model using 100 nanomoles of the test peptide and a dose of 0.15 μg Compound 48/80. An intrinsic zero-peptide-dose 48/80 control was included in each rat for each experiment, and the % of inhibition was expressed in relative terms to this control (0% inhibition). The percent mast cell degranulation produced by 48/80 was also determined.

[2] = tested on: induced type II collagen arthritis; assay: Induced type II collagen arthritis mouse model; format: in vivo; details: HK-X TC or footpad, 0.4 or 4 mg/kg for 20 days; method written in present tense
Description: A mouse model is used to evaluate the effect of the compounds of the present invention on the histological, radiographic and clinical appearance of induced type II collagen arthritis. Mice: DBA/1(2) male mice weighing 25 gms (Jackson Laboratories, Bar Harbor, Me. or B&K Universal, Kent Wash.) are used for this work. This strain of mouse is susceptible to CIA by the injection of heterologous type II collagen. Bovine Collagen (BC), Complete Freund's Adjuvant (CFA) and Incomplete Freund's Adjuvant (ICFA) can be obtained from Sigma Chemical. Antigen for immunization is processed in 0.1 M acetic acid and formulated with CFA or ICFA. […] The degree of cellularity and areas of inflammation are quantified by using digitization of histological photomicrographs and applying standard area and point counting techniques as described above. […] The average area of soft tissue (pannus) of the joint is determined by analysis of computer digitized radiographs, along with changes in density of the adjacent hard tissues by comparison with internal standards included with each radiograph. […] The significance of the differences in density and area for control and experimental mice is assessed using paired T-tests at each time point. […] Swelling of hind paws is also quantitated by measuring the thickness of the ankle from the medial to the lateral malledus with a constant tension caliper. […]

In the case of “f-Met-Leu-Phe-Phe (For-MLFF) [Example 9]”, the “inhibition of induced degranulation compared with standard f-Met-Leu-Phe” value ([1]; dose response) is reported as “unexpectedly substantially better than that of the standard compound f-Met-Leu-Phe”, the “dose response, inhibition of degranulation induced by Compound 48/80” value ([1]; doses of 0 to about 230 nM peptide, FIG. 2 / FIG. 3) is reported as “Surprisingly remarkable inhibition of degranulation induced by Compound 48/80 was clearly shown” and the “% Degranulation” value ([1]; percent mast cell degranulation produced by 48/80, 100 nanomoles peptide) is reported as 1-3%. The “degree of arthritis” value [2] was “found to reduce the degree of arthritis”.
